Assay results reported in patent publication US5837282A, “Ionophore-mediated liposome loading” (priority 1996, dated 1998).

How the values were obtained:
[1] = Drug uptake/leakage after removal of nigericin (spin column, dialysis); settings: SPM/Chol LUVs; 300 mM KH2PO4 (printed 300 mm); nigericin 1 ng/μmol lipid; at 1 hr
Protocol: Uptake was monitored for LUVs containing 300 mM K2 SO4 at a nigericin concentration of 1 ng/μmol lipid (.box-solid.), and for LUVs which were preincubated with nigericin for 5 min at 60° C., and then passed down a spin column prior to addition of the drug (.circle-solid.).
Thus, an aliquot of nigericin (1 ng NIG/μmol lipid) was added to a sample of SPM/Chol LUVs containing 300 mm KH2 PO4 and the temperature was increased to 60° C. for 5 min to ensure association of nigericin with the lipid. The sample was then exhaustively dialysed at room temperature against 300 mM sucrose for 20 hours, following which an aliquot was passed down a spin column prior to drug loading with VINC (FIG. 10B).
To ensure that such was not the case, control uptake experiments were performed on LUVs containing ethylammonium sulfate and amylammonium sulfate which were subjected to the same conditions.

in vivo = settings: mouse, iv; for half-life: 2 mg/kg
Protocol: Lipid was measured using [^14 C]cholesteryl hexadecyl ether as a tracer. The %-retention is defined as the D/L ratio at time t divided by the initial measured drug to lipid ratio.
SPM/Chol vesicles (100 nm) were used (55:45; mole %). The vesicles were prepared in a 300 mM K2 SO4 solution or 300 mM MnSO4 and the external medium was exchanged with 300 mM sucrose, 20 mM HEPES, pH 7.0 by overnight dialysis. […] Uptake of the drug was accomplished in the following manner: to an aliquot of liposomes was added either nigericin (1 ng per μmol of lipid) or A23187 (0.1 ,μg/μmol lipid) along with an appropriate amount of drug. For the A23187 experiments, EDTA was present in the external medium at 30 mM.
Each mouse was injected via a lateral tail vein with 200 μL total volume. […] At varying time points, mice were anaesthetized and blood was collected via cardiac puncture. Blood was immediately centrifuged at 500 g and plasma was collected for lipid and drug determination.
Each drug was loaded using several methods, and was injected at time 0 into mice. At the indicated times, samples were withdrawn and the D/L ratio of the recovered LUVs was determined.

[2] = In vitro drug leakage from LUVs in 50% mouse serum at 37 °C; assay type: in vitro ADME; settings: SPM/Chol LUVs
Protocol: In this assay, equal volumes of the liposomal drug formulation and of mouse serum are combined in a test tube and incubated at 37° C. Leakage of the drug from the LUVs is assayed by removal of aliquots for spin column analysis.
An in vitro leakage assay has been designed which employs mouse serum to assess the relative retentive properties of the various liposomal systems. The assay is extremely simple, involving the incubation of equal volumes of mouse serum and LUV (loaded with drug) at 37° C., followed by the application of aliquots to spin columns to quantitate the change in D/L ratio with time.

[3] = Vincristine uptake (loading) into LUVs using A23187 / Mn2+ systems; assay type: physicochemical; settings: SPM/Chol LUVs, 300 mM MnSO4, 60 °C; for %-uptake / Retention: D/L 0.05, A23187 0.1 μg/μmol lipid
Protocol: (§1) [^14 C]CIPRO was diluted with cold CIPRO and the specific activity was determined by liquid scintillation counting and absorbance spectroscopy. […] For experiments involving [^14 C]CIPRO, the lipid mixtures were labeled using trace amounts of [^3 H]CHE. For [^3 H]VINC uptake the lipid was labeled with [^14 C]CHE. Lipid specific activities were determined by liquid scintillation counting and by quantification of phospholipid via phosphate assays.
Excellent uptake and retention of VINC can also be obtained using Mn^2+ /A23187 with SPM/Chol LUVs (see FIG. 8). Less than 5% uptake was observed when there was no EDTA present in the external medium of Hepes-buffered sucrose (pH 7.5). […] However, extremely poor uptake (40%) is observed at lower external pHs when using 300 mM sucrose 3 mM EDTA.

[4] = literature; cited from earlier work
[5] = Transmembrane ΔpH measured with [14C]methylamine after vincristine uptake; assay type: physicochemical; settings: DSPC/Chol LUVs; 300 mM K2-tartrate pH 7.4; nigericin 1 ng/μmol lipid; external HEPES-buffered sucrose pH 5.3-6.3
Protocol: Uptake of VINC in response to transmembrane gradients of K2 -tartrate has also been investigated in DSPC/Chol LUVs (Table 2). […] The ionophore concentration was 1 ng NIG/μmol lipid.

[6] = Vincristine uptake (loading) into LUVs using nigericin/K+ systems; assay type: physicochemical; settings: 60 °C
Protocol: as §1
As with CIPRO, no uptake was observed prior to the addition of nigericin (arrow). […] A further improvement was obtained (93-95%) for LUVs prepared in 300 mM K2 SO4 pH 7.4 with an external pH of 6 (either 20 mM HEPES 300 mM sucrose or 20 mM MES 300 mM sucrose) (see FIG. 9B).

[7] = external 300 mM sucrose + 3 mM EDTA
[8] = SPM/Chol LUVs, 300 mM KH2PO4, D/L 0.05 wt:wt, nigericin 1 ng/μmol lipid, external 300 mM sucrose

SMILES: CC[C@]1(O)C[C@H]2CN(CCc3c([nH]c4ccccc34)[C@@](C(=O)OC)(c3cc4c(cc3OC)N(C=O)[C@H]3[C@@](O)(C(=O)OC)[C@H](OC(C)=O)[C@]5(CC)C=CCN6CC[C@]43[C@@H]65)C2)C1 [Vincristine, vincristine]
- uptake after 20 h dialysis and spin column [1]: 60%
- factor by which drug leakage half-lives differ (citrate vs A23187) (in vivo): two
- half-life (in vivo): 6 h
- half-life (in vivo; pH 4): 8.5 h
- in vivo retention, A23187 versus 300 mM citrate pH 4.0 (in vivo; pH 4): comparable
- retention in mouse serum, K+/nigericin with phosphate or tartrate salts, or sulfate salts with external pH of 6 [2]: better retention
- retention of drug in mouse serum, Mn2+/A23187 versus K+/nigericin system [2]: better retention
- retention in mouse serum, Mn2+/A23187 versus LUVs loaded using methylammonium sulfate ([2]; results not shown): similar
- uptake ([3]; A23187, external Hepes-buffered sucrose pH 7.5, no EDTA): Less than 5%
- %-uptake [3, 7]: 40%
- Retention [3, 7]: excellent
- Retention ([3]; external 300 mM sucrose + 20 mM HEPES 3 mM EDTA pH 7.5): excellent
- %-uptake ([3]; external 300 mM sucrose + 20 mM HEPES 3 mM EDTA pH 7.5 (text: within one hour)): > 95%
- %-uptake ([3]; external 300 mM sucrose + 20 mM HEPES 3 mM EDTA pH 7.5 (text: within one hour), listed as VINC): over 95%
- Retention ([3]; external 300 mM sucrose + 20 mM HEPES 3 mM EDTA pH 7.5, listed as VINC): Excellent
- %-uptake ([3]; external 300 mM sucrose, no EDTA): 5%
- efficacy in liposomally-encapsulated formulations [4]: equal or increased efficacy
- toxicity in liposomally-encapsulated formulations [4]: significantly reduced toxicity
- ΔpH present following drug uptake [5]: 2.3
- Retention ([6]; DSPC/Chol LUVs, 300 mM K2-tartrate pH 7.4, D/L 0.05 wt:wt, nigericin 1 ng/μmol lipid, external 300 mM sucrose + 20 mM HEPES pH 5.3-6.3): excellent
- %-uptake ([6]; DSPC/Chol LUVs, 300 mM K2-tartrate pH 7.4, D/L 0.05 wt:wt, nigericin 1 ng/μmol lipid, external 300 mM sucrose + 20 mM HEPES pH 5.3-6.3 (text: within 15 min)): 85-90%
- %-uptake ([6]; SPM/Chol LUVs, 300 mM K2-tartrate pH 7.4, D/L 0.05 wt:wt, nigericin 1 ng/μmol lipid, external 300 mM sucrose + 20 mM MES pH 6.0): 70%
- %-uptake ([6]; SPM/Chol LUVs, 300 mM K2HPO4, D/L 0.05 wt:wt, nigericin 1 ng/μmol lipid, external 300 mM sucrose): < 5%
- uptake prior to the addition of nigericin ([6]; SPM/Chol LUVs, 300 mM K2SO4): no uptake
- Retention ([6]; SPM/Chol LUVs, 300 mM K2SO4, external 300 mM sucrose): excellent retention
- Retention ([6]; SPM/Chol LUVs, 300 mM K2SO4, external HEPES-buffered sucrose pH 7.5, over 75 minutes): poor retention
- encapsulation ([6]; SPM/Chol LUVs, 300 mM K2SO4, nigericin 1 ng/μmol lipid, external 300 mM sucrose): ~90%
- uptake ([6]; SPM/Chol LUVs, 300 mM K2SO4, nigericin 1 ng/μmol lipid, external HEPES-buffered sucrose pH 7.5): 60%
- %-uptake ([6]; SPM/Chol LUVs, 300 mM K2SO4 pH 7.4, D/L 0.05 wt:wt, nigericin 1 ng/μmol lipid, external 300 mM sucrose + 20 mM HEPES or MES pH 6.0): 92%
- %-uptake ([6]; SPM/Chol LUVs, 300 mM K2SO4 pH 7.4, D/L 0.05 wt:wt, nigericin 1 ng/μmol lipid, external 300 mM sucrose + 20 mM HEPES or MES pH 6.0, listed as VINC): 93-95%
- %-uptake [6, 8]: 80%
- Retention [6, 8]: excellent
